IC50 data for 27 molecules are collected here from patent US9777003B2, “Tricyclic heterocycles as bet protein inhibitors” (Incyte Corporation, priority 2013, dated 2017).

The structures appear in SMILES notation. Counter-ions that a name gives are not always drawn.

In one assay the target is BRD4-BD1 (Homo sapiens (Human), UniProt O60885). Put plainly: BRD4 AlphaScreen assay, BRD4-BD1. Type of assay: binding. Conditions: biotin-labeled tetra-acetylated histone H4 peptide, 75 min, room temperature, read-out: BRD4 BD-1 enzyme IC50. The protocol: (§1) BRD4-BD1 and BRD4-BD2 assays were conducted in white 384-well polystyrene plate in a final volume of 20 μL for BD1 and 40 μL for BD2. Inhibitors were first serially diluted in DMSO and added to the plate wells before the addition of other reaction components. The final concentration of DMSO in the assay was 1.25% (BD1) and 0.83% (BD2). The assays were carried out at room temperature for 75 min. in the assay buffer (50 mM HEPES, pH 7.4, 100 mM NaCl, 0.05% CHAPS, 0.01% BSA), containing 50 nM Biotin-labeled tetra-acetylated histone H4 peptide (H4Ac4), 3.8 nM (BRD4-BD1, BPS Bioscience #31040) or 20 nM (BRD4-BD2, BPS Bioscience #31041). The reaction followed by the addition of 20 μL of assay buffer supplemented with Streptavidin donor beads (PerkinElmer 6760002) and GSH Acceptor beads (PerkinElmer-AL109C) at 4 μg/mL under reduced light. After plate sealing, the plate was incubated in the dark at room temperature for 75 min. before reading on a PHERAstar FS plate reader (BMG Labtech). IC50 determination was performed by fitting the curve of percent control activity versus the log of the inhibitor concentration using the GraphPad Prism 5.0 software.

The next assay has as its target BRD4-BD2 (Homo sapiens (Human), UniProt O60885). Put plainly: BRD4 AlphaScreen assay, BRD4-BD2. Format: binding. Conditions: biotin-labeled tetra-acetylated histone H4 peptide, 75 min, room temperature, read-out: BRD4 BD-2 enzyme IC50. The protocol: as §1

Turning to `CCNC(=O)c1cc2c(ccc3nnc(C)n32)n1Cc1cccc(CN2CCC2)c1` [Example 121, 6-[3-(Azetidin-1-ylmethyl)benzyl]-N-ethyl-1-methyl-6H-pyrrolo[2,3-e][1,2,4]triazolo[4,3-a]pyridine-7-carboxamide bis(trifluoroacetate) Salt], the IC50 at BRD4-BD1 and at BRD4-BD2 was at most 0.1 µM each time.

Consider `Cc1nnc2ccc3c(cc(C(=O)NCC(C)C)n3Cc3cccc(Cl)c3)n12` [Example 129, 6-(3-Chlorobenzyl)-N-isobutyl-1-methyl-6H-pyrrolo[2,3-e][1,2,4]triazolo[4,3-a]pyridine-7-carboxamide Trifluoroacetate Salt], for which the 50% inhibitory concentration (IC50) on BRD4-BD1 and on BRD4-BD2 was at most 0.1 µM in each case.

For the molecule `Cc1nnc2ccc3c(cc(-c4ccn(C5COC5)n4)n3Cc3cccc(Cl)c3)n12` [Example 177, 6-(3-Chlorobenzyl)-1-methyl-7-(1-oxetan-3-yl-1H-pyrazol-3-yl)-6H-pyrrolo[2,3-e][1,2,4]triazolo[4,3-a]pyridine Trifluoroacetate Salt], the IC50 on BRD4-BD1 and at BRD4-BD2 was at most 0.1 µM each time.

In the case of `Cc1nnc2ccc3c(cc(-c4ccn(C5CN(CCO)C5)n4)n3Cc3cccc(Cl)c3)n12` [Example 179, 2-(3-{3-[6-(3-Chlorobenzyl)-1-methyl-6H-pyrrolo[2,3-e][1,2,4]triazolo[4,3-a]pyridin-7-yl]-1H-pyrazol-1-yl}azetidin-1-yl)ethanol bis(trifluoroacetate) Salt], the IC50 on BRD4-BD1 and at BRD4-BD2 was at most 0.1 µM throughout.

In the case of `Cc1cc2c(ccc3nnc(C)n32)n1C(CO)c1ccccc1` (racemic) [Example 29, 2-(1,7-dimethyl-6H-pyrrolo[2,3-e][1,2,4]triazolo[4,3-a]pyridin-6-yl)-2-phenylethanol], the IC50 on BRD4-BD1 and at BRD4-BD2 was 0.1 to 1 µM throughout.

With `Cc1cc2c(cc(NCC3CC3)c3nnc(C)n32)n1Cc1ccccc1` [Example 228, 6-Benzyl-N-(cyclopropylmethyl)-1,7-dimethyl-6H-pyrrolo[2,3-e][1,2,4]triazolo[4,3-a]pyridin-4-amine], the IC50 at BRD4-BD1 and on BRD4-BD2 was at most 0.1 µM throughout.

With `CN[C@H]1CC[C@H](Nc2cc3c(cc(C)n3Cc3ccccc3)n3c(C)nnc23)CC1` [Example 219, trans-N-(6-Benzyl-1,7-dimethyl-6H-pyrrolo[2,3-e][1,2,4]triazolo[4,3-a]pyridin-4-yl)-N′-methylcyclohexane-1,4-diamine], the IC50 on BRD4-BD1 and at BRD4-BD2 was at most 0.1 µM in each case.

Take `Cc1nnc2ccc3c(cc(C(=O)NCCO)n3Cc3cccc(Cl)c3)n12` [Example 117, 6-(3-Chlorobenzyl)-N-(2-hydroxyethyl)-1-methyl-6H-pyrrolo[2,3-e][1,2,4]triazolo[4,3-a]pyridine-7-carboxamide Trifluoroacetate Salt]: the IC50 on BRD4-BD1 and on BRD4-BD2 was at most 0.1 µM throughout.

For `CNC(=O)c1cc2c(ccc3nnc(C)n32)n1Cc1cccc(C(F)(F)F)c1` [Example 136, N,1-dimethyl-6-[3-(trifluoromethyl)benzyl]-6H-pyrrolo[2,3-e][1,2,4]triazolo[4,3-a]pyridine-7-carboxamide Trifluoroacetate Salt], the IC50 on BRD4-BD1 and on BRD4-BD2 was at most 0.1 µM each time.

Turning to `Cc1cc2c(ccc3nnc(C)n32)n1Cc1ccncc1` [Example 12, 1,7-dimethyl-6-(pyridin-4-ylmethyl)-6H-pyrrolo[2,3-e][1,2,4]triazolo[4,3-a]pyridine], the IC50 on BRD4-BD1 and on BRD4-BD2 was 0.1 to 1 µM throughout.

As for `Cc1cc2c(cc(Nc3cc[nH]n3)c3nnc(C)n32)n1Cc1ccccc1` [Example 200, 6-Benzyl-1,7-dimethyl-N-1H-pyrazol-3-yl-6H-pyrrolo[2,3-e][1,2,4]triazolo[4,3-a]pyridin-4-amine tris(trifluoroacetate) Salt], the IC50 at BRD4-BD1 and on BRD4-BD2 was at most 0.1 µM in each case.

`COc1cc2c(cc(C)n2Cc2ccccc2)n2c(C)nnc12` [Example 264, 6-Benzyl-4-methoxy-1,7-dimethyl-6H-pyrrolo[2,3-e][1,2,4]triazolo[4,3-a]pyridine]: the IC50 at BRD4-BD1 and at BRD4-BD2 was 0.1 to 1 µM throughout.

As to `CC(=O)N1CC(CC#N)(n2ccc(-c3cc4c(ccc5nnc(C)n54)n3Cc3cccc(Cl)c3)n2)C1` [Example 106, (1-acetyl-3-{3-[6-(3-chlorobenzyl)-1-methyl-6H-pyrrolo[2,3-e][1,2,4]triazolo[4,3-a]pyridin-7-yl]-1H-pyrazol-1-yl}azetidin-3-yl)acetonitrile], the IC50 on BRD4-BD1 and at BRD4-BD2 was at most 0.1 µM each time.

With `Cc1cc2c(cc(N[C@H]3CC[C@@H](N)CC3)c3nnc(C)n32)n1Cc1ccccc1` [Example 218, cis-N-(6-Benzyl-1,7-dimethyl-6H-pyrrolo[2,3-e][1,2,4]triazolo[4,3-a]pyridin-4-yl)cyclohexane-1,4-diamine], the IC50 on BRD4-BD1 and on BRD4-BD2 was at most 0.1 µM throughout.

Turning to `CNCc1cccc(Cn2c(C)cc3c2ccc2nnc(C)n23)c1` [Example 41, 1-{3-[(1,7-dimethyl-6H-pyrrolo[2,3-e][1,2,4]triazolo[4,3-a]pyridin-6-yl)methyl]phenyl}-N-methylmethanamine], the IC50 on BRD4-BD1 and at BRD4-BD2 was at most 0.1 µM each time.

In the case of `Cc1cc2c(ccc3nnc(C)n32)n1Cc1cccc(C(N)=O)c1` [Example 30, 3-((1,7-dimethyl-6H-pyrrolo[2,3-e][1,2,4]triazolo[4,3-a]pyridin-6-yl)methyl)benzamide Trifluoroacetate Salt], the IC50 on BRD4-BD1 is 0.1 to 1 µM; at BRD4-BD2, at most 0.1 µM.

Consider `CCCC(=O)Nc1cc2c(cc(C)n2Cc2ccccc2)n2c(C)nnc12` [Example 267, N-(6-Benzyl-1,7-dimethyl-6H-pyrrolo[2,3-e][1,2,4]triazolo[4,3-a]pyridin-4-yl)butyramide], for which the IC50 at BRD4-BD1 is 0.1 to 1 µM; on BRD4-BD2, at most 0.1 µM.

Take `Cc1nnc2ccc3c(cc(C(=O)NCc4ccncc4)n3Cc3ccccc3)n12` [Example 126, 6-Benzyl-1-methyl-N-(pyridin-4-ylmethyl)-6H-pyrrolo[2,3-e][1,2,4]triazolo[4,3-a]pyridine-7-carboxamide bis(trifluoroacetate) Salt]: the IC50 on BRD4-BD1 and at BRD4-BD2 was 0.1 to 1 µM in each case.

Consider `Cc1cc2c(ccc3nnc(C)n32)n1Cc1cccc(Cl)c1` [Example 9, 6-(3-chlorobenzyl)-1,7-dimethyl-6H-pyrrolo[2,3-e][1,2,4]triazolo[4,3-a]pyridine], for which the IC50 on BRD4-BD1 and on BRD4-BD2 was at most 0.1 µM each time.

With `Cc1nnc2ccc3c(cc(-c4ccn(C(C)CC#N)n4)n3Cc3ccccc3)n12` (racemic) [Example 87, 3-[3-(6-benzyl-1-methyl-6H-pyrrolo[2,3-e][1,2,4]triazolo[4,3-a]pyridin-7-yl)-1H-pyrazol-1-yl]butanenitrile Trifluoroacetate Salt], the IC50 on BRD4-BD1 and at BRD4-BD2 was at most 0.1 µM in each case.

As to `Cc1nnc2ccc3c(cc(C(=O)N[C@H]4C[C@H](C#N)C4)n3Cc3ccccc3)n12` [Example 100, 6-benzyl-N-(trans-3-cyanocyclobutyl)-1-methyl-6H-pyrrolo[2,3-e][1,2,4]triazolo[4,3-a]pyridine-7-carboxamide], the IC50 on BRD4-BD1 and on BRD4-BD2 was at most 0.1 µM throughout.

For `Cc1cc2c(ccc3nnc(C)n32)n1Cc1cccc(O)c1` [Example 23, 3-[(1,7-dimethyl-6H-pyrrolo[2,3-e][1,2,4]triazolo[4,3-a]pyridin-6-yl)methyl]phenol], the IC50 at BRD4-BD1 and on BRD4-BD2 was at most 0.1 µM throughout.

Regarding `Cc1nnc2ccc3c(cc(-c4cccs4)n3Cc3ccccc3)n12` [Example 73, 6-benzyl-1-methyl-7-(2-thienyl)-6H-pyrrolo[2,3-e][1,2,4]triazolo[4,3-a]pyridine], the results for the half-inhibitory concentration (IC50) on BRD4-BD1 and at BRD4-BD2 were 0.1 to 1 µM and at most 0.1 µM, respectively.

Turning to `Cc1cc2c(cc(NC3CCN(C)CC3)c3nnc(C)n32)n1Cc1ccccn1` [Example 153, 1,7-dimethyl-N-(1-methylpiperidin-4-yl)-6-(pyridin-2-ylmethyl)-6H-pyrrolo[2,3-e][1,2,4]triazolo[4,3-a]pyridin-4-amine], the IC50 on BRD4-BD1 and at BRD4-BD2 was at most 0.1 µM in each case.

As for `Cc1nnc2ccc3c(cc(-c4cncn4C)n3Cc3ccccc3)n12` [Example 71, 6-benzyl-1-methyl-7-(1-methyl-1H-imidazol-5-yl)-6H-pyrrolo[2,3-e][1,2,4]triazolo[4,3-a]pyridine], the IC50 fell in the range of 0.1 to 1 µM on BRD4-BD1 and 1 to 10 µM on BRD4-BD2.

As for `Cc1nnc2ccc3c(cc(-c4ccn[nH]4)n3Cc3ccccc3)n12` [Example 62, 6-benzyl-1-methyl-7-(1H-pyrazol-5-yl)-6H-pyrrolo[2,3-e][1,2,4]triazolo[4,3-a]pyridine], the IC50 on BRD4-BD1 and on BRD4-BD2 was at most 0.1 µM each time.

With `Cc1cc2c(ccc3nnc(C)n32)n1S(=O)(=O)c1ccccc1` [Example 2a, 1,7-dimethyl-6-(phenylsulfonyl)-6H-pyrrolo[2,3-e][1,2,4]triazolo[4,3-a]pyridine], the IC50 on BRD4-BD2 was in the range of 0.1 to 1 µM.
